The values below come from patent US10071995B2, “Substituted oxopyridine derivatives” (BAYER PHARMA AKTIENGESELLSCHAFT, priority 2014, dated 2018).

SMILES strings stand for the structures.

One experiment deals with human plasma kallikrein (Homo sapiens (Human), UniProt P03952). The experiment in a line: Determination of the plasma kallikrein activity (fluorogenic peptide substrate). Format: biochemical. To be noted: plasma kallikrein from Kordia, substrate H-Pro-Phe-Arg-AMC, 22° C., 30 min. Here is the method:
To determine the plasma kallikrein inhibition of the substances according to the invention, a biochemical test system is used which utilizes the reaction of a peptidic plasma kallikrein substrate to determine the enzymatic activity of human plasma kallikrein. Here, plasma kallikrein cleaves from the peptic plasma kallikrein substrate the C-terminal aminomethylcoumarin (AMC), the fluorescence of which is measured. The determinations are carried out in microtitre plates.
1 μl of the diluted substance solutions is placed into each of the wells of white microtitre plates from Greiner (384 wells). 20 μl of assay buffer (50 mM Tris/HCl pH 7.4; 100 mM sodium chloride solution; 5 mM of calcium chloride solution; 0.1% of bovine serum albumin) and 20 μl of plasma kallikrein from Kordia (0.6 nM in assay buffer) are then added successively. After 15 min of incubation, the enzyme reaction is started by addition of 20 μl of the substrate H-Pro-Phe-Arg-AMC dissolved in assay buffer (10 μM in assay buffer) from Bachem, the mixture is incubated at room temperature (22° C.) for 30 min and fluorescence is then measured (excitation: 360 nm, emission: 460 nm). The measured emissions of the test batches with test substance are compared to those of control batches without test substance (only dimethyl sulphoxide instead of test substance in dimethyl sulphoxide), and IC50 values are calculated from the concentration/activity relationships.

Another experiment deals with human factor XIa (Homo sapiens (Human), UniProt P03951). The experiment in a line: Measurement of FXIa inhibition (fluorogenic peptide substrate). Format: biochemical. To be noted: factor XIa from Kordia, substrate Boc-Glu(OBzl)-Ala-Arg-AMC, 22° C., 30 min. Here is the method:
The factor XIa inhibition of the substances according to the invention is determined using a biochemical test system which utilizes the reaction of a peptidic factor XIa substrate to determine the enzymatic activity of human factor XIa. Here, factor XIa cleaves from the peptic factor XIa substrate the C-terminal aminomethylcoumarin (AMC), the fluorescence of which is measured. The determinations are carried out in microtitre plates.
1 μl of the diluted substance solutions is placed into each of the wells of white microtitre plates from Greiner (384 wells). […] After 15 min of incubation, the enzyme reaction is started by addition of 20 μl of the factor XIa substrate Boc-Glu(OBzl)-Ala-Arg-AMC dissolved in assay buffer (10 μM in assay buffer) from Bachem, the mixture is incubated at room temperature (22° C.) for 30 min and fluorescence is then measured (excitation: 360 nm, emission: 460 nm). The measured emissions of the test batches with test substance are compared to those of control batches without test substance (only dimethyl sulphoxide instead of test substance in dimethyl sulphoxide), and IC50 values are calculated from the concentration/activity relationships.

Sequence of human plasma kallikrein (P03952 391-638): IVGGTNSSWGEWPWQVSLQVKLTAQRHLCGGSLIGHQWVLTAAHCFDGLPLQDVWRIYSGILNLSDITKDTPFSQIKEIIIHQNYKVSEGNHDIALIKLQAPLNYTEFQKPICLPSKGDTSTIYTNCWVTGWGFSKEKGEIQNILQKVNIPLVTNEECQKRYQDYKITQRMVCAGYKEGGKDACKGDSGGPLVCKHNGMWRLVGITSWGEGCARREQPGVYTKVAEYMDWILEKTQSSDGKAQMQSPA
Sequence of human plasma kallikrein (P03952 20-390 partner): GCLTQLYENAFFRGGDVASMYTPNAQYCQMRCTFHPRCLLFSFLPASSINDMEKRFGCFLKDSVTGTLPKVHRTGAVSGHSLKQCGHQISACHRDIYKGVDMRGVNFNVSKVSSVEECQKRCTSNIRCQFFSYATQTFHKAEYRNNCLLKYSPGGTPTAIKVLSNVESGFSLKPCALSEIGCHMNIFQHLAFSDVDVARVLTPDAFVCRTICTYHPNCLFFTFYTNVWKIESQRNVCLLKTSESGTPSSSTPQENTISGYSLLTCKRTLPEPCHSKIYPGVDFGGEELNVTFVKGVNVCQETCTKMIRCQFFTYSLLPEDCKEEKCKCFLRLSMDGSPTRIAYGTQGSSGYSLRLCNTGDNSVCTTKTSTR
Sequence of human factor XIa (P03951 388-625): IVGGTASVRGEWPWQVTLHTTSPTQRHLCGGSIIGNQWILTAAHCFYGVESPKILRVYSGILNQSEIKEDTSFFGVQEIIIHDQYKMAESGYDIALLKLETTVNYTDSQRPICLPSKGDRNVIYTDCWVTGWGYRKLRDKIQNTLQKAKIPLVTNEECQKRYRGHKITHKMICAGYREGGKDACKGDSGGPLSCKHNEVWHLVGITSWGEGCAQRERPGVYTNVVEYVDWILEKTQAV
Sequence of human factor XIa (P03951 19-387 partner): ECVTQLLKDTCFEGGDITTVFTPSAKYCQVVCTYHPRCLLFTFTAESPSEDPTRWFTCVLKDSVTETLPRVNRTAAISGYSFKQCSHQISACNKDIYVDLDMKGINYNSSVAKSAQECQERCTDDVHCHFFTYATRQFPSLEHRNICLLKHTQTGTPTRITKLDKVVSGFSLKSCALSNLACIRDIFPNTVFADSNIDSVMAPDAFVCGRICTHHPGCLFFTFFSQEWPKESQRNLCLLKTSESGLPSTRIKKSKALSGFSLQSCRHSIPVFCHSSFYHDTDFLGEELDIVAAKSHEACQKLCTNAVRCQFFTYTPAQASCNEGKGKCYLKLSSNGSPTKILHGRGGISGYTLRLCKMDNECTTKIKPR

For orientation: IC50 means the concentration that gives 50% inhibition. High values mean a need for much substance, low ones inhibition by little substance. For `COCCC(C(=O)Nc1ccc(C(N)=O)s1)n1cc(Cl)c(-c2cc(Cl)ccc2C#N)cc1=O` (racemic) [Example 2, 5-({2-[5-Chloro-4-(5-chloro-2-cyanophenyl)-2-oxopyridin-1(2H)-yl]-4-methoxybutanoyl}amino)-thiophene-2-carboxamide (racemate)], the values for the 50% inhibitory concentration (IC50) against human plasma kallikrein and on human factor XIa were 28 nM and 26 nM, respectively.
Take `COc1cn(C(Cc2ccccn2)C(=O)Nc2cc(F)c(C(N)=O)s2)c(=O)cc1-c1cc(Cl)ccc1C#N` (racemic) [Example 3, 5-({2-[4-(5-Chloro-2-cyanophenyl)-5-methoxy-2-oxopyridin-1(2H)-yl]-3-(pyridin-2-yl)propanoyl}-amino)-3-fluorothiophene-2-carboxamide (racemate)]: inhibition on human factor XIa was half-maximal at 34 nM (IC50). This counts as double-digit nanomolar.
For the molecule `COc1cn(C(Cc2ccncc2)C(=O)Nc2cc(F)c(C(N)=O)s2)c(=O)cc1-c1cc(Cl)ccc1C#N` (racemic) [Example 4, 5-({2-[4-(5-Chloro-2-cyanophenyl)-5-methoxy-2-oxopyridin-1(2H)-yl]-3-(pyridin-4-yl)propanoyl}-amino)-3-fluorothiophene-2-carboxamide (racemate)], the IC50 against human plasma kallikrein is 36 nM; against human factor XIa it was 29 nM.
The matching figures for `COc1cn(C(Cc2ccccn2)C(=O)Nc2cc(F)c(C(N)=O)s2)c(=O)cc1-c1cc(Cl)ccc1F` (racemic) [Example 6, 5-({2-[4-(5-Chloro-2-fluorophenyl)-5-methoxy-2-oxopyridin-1(2H)-yl]-3-(pyridin-2-yl)propanoyl}-amino)-3-fluorothiophene-2-carboxamide (racemate)]: more than 10000 nM and 1200 nM.
In turn, `COCCC(C(=O)Nc1ccc(C(=O)O)s1)n1cc(OC)c(-c2cc(Cl)ccc2C#N)cc1=O` (racemic) [Example 7, 5-({2-[4-(5-Chloro-2-cyanophenyl)-5-methoxy-2-oxopyridin-1(2H)-yl]-4-methoxybutanoyl}amino)-thiophene-2-carboxylic acid (racemate)] displayed an IC50 against human factor XIa of 3 nM.
As for `COCCC(C(=O)Nc1cc(F)c(C(N)=O)s1)n1cc(OC)c(-c2cc(Cl)ccc2C#N)cc1=O` (racemic) [Example 9, 5-({2-[4-(5-Chloro-2-cyanophenyl)-5-methoxy-2-oxopyridin-1(2H)-yl]-4-methoxybutanoyl}amino)-3-fluorothiophene-2-carboxamide (racemate)], the results for the half-maximal inhibitory concentration (IC50) against human plasma kallikrein and against human factor XIa were 100 nM and 54 nM, respectively.
For `CNC(=O)c1ccc(NC(=O)C(Cc2ccn(C)n2)n2cc(OC)c(-c3cc(Cl)ccc3C#N)cc2=O)s1` (racemic) [Example 15, 5-({2-[4-(5-Chloro-2-cyanophenyl)-5-methoxy-2-oxopyridin-1(2H)-yl]-3-(1-methyl-1H-pyrazol-3-yl)propanoyl}amino)-N-methylthiophene-2-carboxamide (racemate)], the IC50 on human plasma kallikrein turned out to be 1.6 nM; at human factor XIa it was 5.4 nM.
Take `CNC(=O)c1ccc(NC(=O)C(Cc2cnco2)n2cc(OC)c(-c3cc(Cl)ccc3C#N)cc2=O)s1` (racemic) [Example 17, 5-({2-[4-(5-Chloro-2-cyanophenyl)-5-methoxy-2-oxopyridin-1(2H)-yl]-3-(1,3-oxazol-5-yl)-propanoyl}amino)-N-methylthiophene-2-carboxamide (racemate)]: it took 6.2 nM to reach half-maximal inhibition at human factor XIa (IC50).
The same measure, in the same setting: with `COc1cn(C(Cc2ccccn2)C(=O)Nc2ccc(C(=O)O)s2)c(=O)cc1-c1cc(Cl)ccc1C#N` (racemic) [Example 18, 5-({2-[4-(5-Chloro-2-cyanophenyl)-5-methoxy-2-oxopyridin-1(2H)-yl]-3-(pyridin-2-yl)propanoyl}-amino)thiophene-2-carboxylic acid (racemate)] the figure was 2.6 nM.
For `COCCC(C(=O)Nc1ccc(C(=O)O)s1)n1cc(Cl)c(-c2cc(Cl)ccc2C#N)cc1=O` (racemic) [Example 19, 5-({2-[5-Chloro-4-(5-chloro-2-cyanophenyl)-2-oxopyridin-1(2H)-yl]-4-methoxybutanoyl}amino)-thiophene-2-carboxylic acid (racemate)], the IC50 on human plasma kallikrein amounted to 47 nM; on human factor XIa, 6.9 nM.
For `COCCC(C(=O)Nc1cc(F)c(C(N)=O)s1)n1cc(OC)c(-c2cc(Cl)ccc2C#N)cc1=O` (single isomer, unassigned; enantiomer 1) [Example 10, 5-({2-[4-(5-Chloro-2-cyanophenyl)-5-methoxy-2-oxopyridin-1(2H)-yl]-4-methoxybutanoyl}-amino)-3-fluorothiophene-2-carboxamide (enantiomer 1)] the same measures were 47 nM and 27 nM.
The matching figures for `CNC(=O)c1ccc(NC(=O)C(Cc2ccn(C)n2)n2cc(OC)c(-c3cc(Cl)ccc3C#N)cc2=O)s1` (single isomer, unassigned; enantiomer 1) [Example 16, 5-({2-[4-(5 -Chloro-2-cyanophenyl)-5-methoxy-2-oxopyridin-1(2H)-yl]-3-(1-methyl-1H-pyrazol-3-yl)propanoyl}amino)-N-methylthiophene-2-carboxamide (enantiomer 1)]: 1.5 nM and 2.8 nM.
